Strand notation (5' to 3'): a small letter for the sugar, then the base; units joined by * are phosphorothioate-linked, units joined directly phosphodiester-linked; [ ] holds rarer units or linkages, { } end groups; capitals alone tell only the bases. d = 2'-deoxy (DNA)
Tested on: human Cellular Inhibitor of Apoptosis-1 RNA
Experiment: Inhibition of Cellular Inhibitor of Apoptosis-1 mRNA levels by quantitative real-time PCR after oligonucleotide treatment of cells
Type: cell-based
Settings: for % Inhibition of Cellular Inhibitor of Apoptosis-1 mRNA levels: phosphorothioate oligodeoxynucleotides, oligonucleotide at final concentration of 150 nM with LIPOFECTIN, real-time PCR, averages from three experiments; for inhibition of Cellular Inhibitor of Apoptosis-1 expression: summary of Table 1, real-time PCR of mRNA levels
Protocol: Cells were harvested 16 hours after oligonucleotide treatment.
Poly(A)+ mRNA was isolated according to Miura et al., Clin. Chem., 1996, 42, 1758-1764. Other methods for poly(A)+ mRNA isolation are taught in, for example, Ausubel, F. M. et al., Current Protocols in Molecular Biology, Volume 1, pp. 4.5.1-4.5.3, John Wiley & Sons, Inc., 1993. […] 60 μL lysis buffer (10 mM Tris-HCl, pH 7.6, 1 mM EDTA, 0.5 M NaCl, 0.5% NP-40, 20 mM vanadyl-ribonucleoside complex) was added to each well, the plate was gently agitated and then incubated at room temperature for five minutes. 55 μL of lysate was transferred to Oligo d(T) coated 96-well plates (AGCT Inc., Irvine Calif.). Plates were incubated for 60 minutes at room temperature, washed 3 times with 200 μL of wash buffer (10 mM Tris-HCl pH 7.6, 1 mM EDTA, 0.3 M NaCl). After the final wash, the plate was blotted on paper towels to remove excess wash buffer and then air-dried for 5 minutes. 60 μL of elution buffer (5 mM Tris-HCl pH 7.6), preheated to 70° C. was added to each well, the plate was incubated on a 90° C. hot plate for 5 minutes, and the eluate was then transferred to a fresh 96-well plate.
Cellular Inhibitor of Apoptosis-1 probes and primers were designed to hybridize to the human Cellular Inhibitor of Apoptosis-1 sequence, using published sequence information (GenBank accession number U37547, incorporated herein as SEQ ID NO:1).
For Cellular Inhibitor of Apoptosis-1 the PCR primers were: […]
Target sites are indicated by nucleotide numbers, as given in the sequence source reference (Genbank accession no. U37547), to which the oligonucleotide binds. All compounds in Table 1 are oligodeoxynucleotides with phosphorothioate backbones (internucleoside linkages) throughout. […] Data are averages from three experiments. If present, “N.D.” indicates “no data”.

Row | Substance | % Inhibition of Cellular Inhibitor of Apoptosis-1 mRNA levels | inhibition of Cellular Inhibitor of Apoptosis-1 expression
1 | ISIS 23336: phosphorothioate oligodeoxynucleotide ttagttagccataaaatt, 5′ UTR target site 287 (antisense dT*dT*dA*dG*dT*dT*dA*dG*dC*dC*dA*dT*dA*dA*dA*dA*dT*dT) | 0% | 
2 | ISIS 23354: phosphorothioate oligodeoxynucleotide ccaaggtgggagataatg, Coding target site 1572 (antisense dC*dC*dA*dA*dG*dG*dT*dG*dG*dG*dA*dG*dA*dT*dA*dA*dT*dG) | 3% | 
3 | ISIS 23351: phosphorothioate oligodeoxynucleotide tagagttcacaggaaaag, Coding target site 1285 (antisense dT*dA*dG*dA*dG*dT*dT*dC*dA*dC*dA*dG*dG*dA*dA*dA*dA*dG) | 0% | 
4 | ISIS 23344: phosphorothioate oligodeoxynucleotide tgccttttatttatattt, 5′ UTR target site 764 (antisense dT*dG*dC*dC*dT*dT*dT*dT*dA*dT*dT*dT*dA*dT*dA*dT*dT*dT) | 0% | 
5 | ISIS 23341: phosphorothioate oligodeoxynucleotide aagcactttaacatgaca, 5′ UTR target site 661 (antisense dA*dA*dG*dC*dA*dC*dT*dT*dT*dA*dA*dC*dA*dT*dG*dA*dC*dA) | 15% | 
6 | ISIS 23363: phosphorothioate oligodeoxynucleotide ttttactttgaactgttt, Coding target site 2391 (antisense dT*dT*dT*dT*dA*dC*dT*dT*dT*dG*dA*dA*dC*dT*dG*dT*dT*dT) | 0% | 
7 | ISIS 23346: phosphorothioate oligodeoxynucleotide ggtaacctaagtgctatt, 5′ UTR target site 915 (antisense dG*dG*dT*dA*dA*dC*dC*dT*dA*dA*dG*dT*dG*dC*dT*dA*dT*dT) | 0% | 
8 | ISIS 23364: phosphorothioate oligodeoxynucleotide catttcttcagcttgttt, Coding target site 2501 (antisense dC*dA*dT*dT*dT*dC*dT*dT*dC*dA*dG*dC*dT*dT*dG*dT*dT*dT) | 0% | 
9 | ISIS 23352: phosphorothioate oligodeoxynucleotide ccagattctgaataaagc, Coding target site 1491 (antisense dC*dC*dA*dG*dA*dT*dT*dC*dT*dG*dA*dA*dT*dA*dA*dA*dG*dC) | 0% | 
10 | ISIS 23356: phosphorothioate oligodeoxynucleotide tagaattaagagggtttg, Coding target site 1632 (antisense dT*dA*dG*dA*dA*dT*dT*dA*dA*dG*dA*dG*dG*dG*dT*dT*dT*dG) | 0% | 
11 | ISIS 23339: phosphorothioate oligodeoxynucleotide aagtcaatacccacaagc, 5′ UTR target site 497 (antisense dA*dA*dG*dT*dC*dA*dA*dT*dA*dC*dC*dC*dA*dC*dA*dA*dG*dC) | 0% | 
12 | ISIS 23357: phosphorothioate oligodeoxynucleotide tggtaggtaagaaatctg, Coding target site 1717 (antisense dT*dG*dG*dT*dA*dG*dG*dT*dA*dA*dG*dA*dA*dA*dT*dC*dT*dG) | 0% | 
13 | ISIS 23350: phosphorothioate oligodeoxynucleotide caatctgacaagatcgtg, Coding target site 1234 (antisense dC*dA*dA*dT*dC*dT*dG*dA*dC*dA*dA*dG*dA*dT*dC*dG*dT*dG) | 0% | 
14 | ISIS 23335: phosphorothioate oligodeoxynucleotide ttaaggactattcagcta, 5′ UTR target site 216 (antisense dT*dT*dA*dA*dG*dG*dA*dC*dT*dA*dT*dT*dC*dA*dG*dC*dT*dA) | 0% | 
15 | ISIS 23332: phosphorothioate oligodeoxynucleotide aaattacactccatagaa, 5′ UTR target site 4 (antisense dA*dA*dA*dT*dT*dA*dC*dA*dC*dT*dC*dC*dA*dT*dA*dG*dA*dA) | 0% | 
16 | ISIS 23358: phosphorothioate oligodeoxynucleotide ttcccagttactgagctt, Coding target site 1835 (antisense dT*dT*dC*dC*dC*dA*dG*dT*dT*dA*dC*dT*dG*dA*dG*dC*dT*dT) | 78% | at least 20%
17 | ISIS 23367: phosphorothioate oligodeoxynucleotide gaccacaaggaataaata, Coding target site 2904 (antisense dG*dA*dC*dC*dA*dC*dA*dA*dG*dG*dA*dA*dT*dA*dA*dA*dT*dA) | 0% | 
18 | ISIS 23371: phosphorothioate oligodeoxynucleotide agtgaaaagcaccaaaga, 3′ UTR target site 3407 (antisense dA*dG*dT*dG*dA*dA*dA*dA*dG*dC*dA*dC*dC*dA*dA*dA*dG*dA) | 0% | 
19 | ISIS 23362: phosphorothioate oligodeoxynucleotide ataattggtgggtcagca, Coding target site 2269 (antisense dA*dT*dA*dA*dT*dT*dG*dG*dT*dG*dG*dG*dT*dC*dA*dG*dC*dA) | 0% | 
20 | ISIS 23355: phosphorothioate oligodeoxynucleotide gagtaagaaccactgaac, Coding target site 1603 (antisense dG*dA*dG*dT*dA*dA*dG*dA*dA*dC*dC*dA*dC*dT*dG*dA*dA*dC) | 0% | 
21 | ISIS 23348: phosphorothioate oligodeoxynucleotide tttcttcacatgaactaa, 5′ UTR target site 1097 (antisense dT*dT*dT*dC*dT*dT*dC*dA*dC*dA*dT*dG*dA*dA*dC*dT*dA*dA) | 0% | 
22 | ISIS 23334: phosphorothioate oligodeoxynucleotide ctagtgttatcagaaacg, 5′ UTR target site 139 (antisense dC*dT*dA*dG*dT*dG*dT*dT*dA*dT*dC*dA*dG*dA*dA*dA*dC*dG) | 0% | 
23 | ISIS 23338: phosphorothioate oligodeoxynucleotide ttggcttaaagttcaaaa, 5′ UTR target site 435 (antisense dT*dT*dG*dG*dC*dT*dT*dA*dA*dA*dG*dT*dT*dC*dA*dA*dA*dA) | 0% | 
24 | ISIS 23361: phosphorothioate oligodeoxynucleotide taccttgaatctcatcaa, Coding target site 2193 (antisense dT*dA*dC*dC*dT*dT*dG*dA*dA*dT*dC*dT*dC*dA*dT*dC*dA*dA) | 0% | 
25 | ISIS 23353: phosphorothioate oligodeoxynucleotide tttctcattggagacgta, Coding target site 1540 (antisense dT*dT*dT*dC*dT*dC*dA*dT*dT*dG*dG*dA*dG*dA*dC*dG*dT*dA) | 32% | at least 20%
